We go through 1 substance from US20180188270A1, “DIAGNOSTIC TEST FOR ALZHEIMER'S DISEASE BASED ON IDENTIFICATION OF A PROTEOLYTIC PATHWAY” (Health Research, Inc., priority 2015, published 2018).

Where “and” joins values, the source holds several entries; their conditions need not be identical. Identical values can stand only once. Entries after “also recorded” stand apart in the source; their conditions may differ.

Common to all, as to format: in vivo, mouse
The subject of one experiment is plasma PEPD. Nature of the experiment: Plasma PEPD concentration in mice by ELISA. The conditions noted are these: for average plasma level of total PEPD, higher than with hPEPD alone: hPEPD 0.2 mg/kg 1 h after last EP dose. The procedure: Animal studies. All animal studies were performed in accordance with protocols approved by the Institutional Animal Care and Use Committee at Roswell Park Cancer Institute. Male mice at 7-8 weeks of age were used, including wild type (WT) mice (C57BL/6), and mice deficient in FXII (C57BL/6-FXII^−/−) or FVII (C57BL/6-FVII^tTA/tTA). WT C57BL/6 mice were purchased from Taconic. C57BL/6-FXII^−/− mice and C57BL/6-FVII^tTA/tTA mice were bred in our own facility and genotyped. The breeders were kindly provided by Dr. Francis J. Castellino at University of Notre Dame. […] CCl4 was dissolved in corn oil, whereas all other substances were dissolved in PBS. The vehicle or the test substance was given to mice in 0.1 ml volume per 20 g body weight. Blood was collected from the mice at specific times by cardiac puncture at the time of sacrifice by carbon dioxide, and heart, liver and kidney were also collected from some of the mice. Blood was collected into K3 EDTA-containing tubes (Multivette 600 from Sarstedt), unless specified otherwise. All blood samples were promptly centrifuged to obtain plasma samples.
Measurement of plasma levels of PEPD, SRC, Aβ1-42 and FI. […] The plates were washed three times with phosphate buffered saline tween-20 (PBST) and the coated wells were blocked by incubation with 200 μl/well of 1% BSA in PBS for at least 2 h at RT. After another round of wash with PBST, the plates were incubated with appropriately diluted Aβ1-42 standard, SRC standard or plasma samples (100 μl/well) for 2 h at RT. The plates were then washed with PBST and incubated with an anti-Aβ1-42 rabbit polyclonal antibody (sc-9129) or anti-SRC rabbit monoclonal antibody (2123) at 100 μl/well for 2 h at RT. The plates were washed again with PBST, and each well was incubated with a goat anti-rabbit IgG-HRP conjugate (100 μl) for 1 h at RT. After yet another round of wash with PBST, each well was incubated with 100 μl of HRP substrate 3,3′,5,5′-tetramethylbenzedine (Cell Signaling, 7004). Upon adequate color development, 100 μl of stop solution (Cell Signaling, 7002) was added to each well, and absorbance at 450 nm was promptly recorded by a microtiter plate reader. Plasma FI concentration was determined using an assay kit (400-374-130050) from GenWay Biotech, following the manufacturer's instruction.
For orientation: An ELISA detects its analyte on a solid surface through an enzyme-linked reagent.

In experiment [1] the test system is plasma coagulation factors FXII, PK, HMWK, FXI, FIX, FX, FII, FI and FVII. Description: Changes in plasma coagulation factors in mice by IB (FI by ELISA).
A further experiment relates to plasma Aβ1-42. Nature of the experiment: Plasma Aβ1-42 concentration in mice by ELISA. The conditions noted are these: WT mice, EP 2.5 mg/kg i.p. daily 5 days.
For the next experiment, the system named is plasma hAβ1-40. Description: Plasma hAβ1-40 level in mice by ELISA. To be noted: EP 0.5 mg/kg i.p. daily 5 days, hAβ1-40 40 μg/kg 1 h after fifth dose, 6 h.
Experiment [2] has as its system total plasma Aβ1-40 and Aβ1-42. Description: Total plasma level of Aβ1-40 and Aβ1-42 in J20 AD mice and WT mice by ELISA. The conditions noted are these: for increase in total plasma levels of Aβ1-40 and Aβ1-42: EP 0.5 mg/kg i.p. daily 5 days. An excerpt:
(§1) B6.Cg-Tg(PDGFB-APPSwlnd) 20 Lms/2 JMjax mice, also known as J20 mice, were purchased from Jackson Laboratory. J20 mice express a mutant form of the human Aβ precursor protein (APP) bearing both the Swedish (K670N/M671L) and the Indiana (V717F) mutations (APPSwlnd) (Mucke et al., J Neurosci, 2000, 20, 4050-4058). Neural expression of the transgenic insert is directed by the human platelet-derived growth factor beta polypeptide (PDGFB) promoter. J20 mice in C57BL/6 background (male hemizygotes) were bred to wild type (WT) female C57BL/6J mice (also purchased from Jackson Laboratory). F1 mice were genotyped by PCR at weaning to identify the hemizygotes and the non-transgenic littermates. Mice at age of 1 month and 3 months were treated once daily with vehicle or EP (0.5 mg/kg) i.p for 5 days. EP was given in PBS (0.1 ml per 20 g body weight). Blood was collected from the mice at 6 h after the last PBS/EP dose by cardiac puncture at the time of sacrifice by carbon dioxide. Blood was collected into K3 EDTA-containing tubes (Multivette 600 from Sarstedt).
Total plasma levels of Aβ1-40 and Aβ1-42 were measured by ELISA. Briefly, 96-well ELISA plates were coated with an anti-Aβ1-42 monoclonal antibody (sc-374527) at 0.25 μg/100 μl/well at 4° C. overnight. The plates were washed three times with phosphate buffered saline tween-20 (PBST) and the coated wells were blocked by incubation with 200 μl/well of 1% BSA in PBS for at least 2 h at RT. […] The plates were then washed with PBST and incubated with an anti-Aβ1-42 rabbit polyclonal antibody (sc-9129) at 100 μl/well for 2 h at RT. The plates were washed again with PBST, and each well was incubated with a goat anti-rabbit IgG-HRP conjugate (100 μl) for 1 h at RT. After yet another round of wash with PBST, each well was incubated with 100 μl of HRP substrate 3,3′,5,5′-tetramethylbenzedine (Cell Signaling, 7004). Upon adequate color development, 100 μl of stop solution (Cell Signaling, 7002) was added to each well, and absorbance at 450 nm was promptly recorded by a microtiter plate reader.

The subject of experiment [3] is coagulation factors FX, FII and FVII. Nature of the experiment: Coagulation proteases in J20 AD mice by western blotting. The conditions noted are these: AD mice at 1 month and 3 months of age, EP 0.5 mg/kg i.p. daily 5 days.
Excerpt: as §1
In general terms: A western blot detects proteins with antibodies after separation by electrophoresis.

The mark [4] stands for this setting: WT mice, EP 2.5 mg/kg i.p. daily 5 days.
Where [5] appears, read: WT mice, EP 2.5 mg/kg daily 5 days, hPEPD 0.2 mg/kg.

Take enoxaparin [EP]: the “average plasma level of total PEPD in WT mice, lower than in FXII−/− mice” value in the experiment with plasma PEPD (EP pretreatment, 6 h after hPEPD 0.2 mg/kg i.p.) was 14.6%. Further, the “effect of EP on plasma PEPD level” value in the experiment with plasma PEPD (FXII−/− mice, EP 2.5 mg/kg i.p. daily 5 days) is recorded as “did not show a significant effect”. Also, the “plasma level of mPEPD, increase by EP” value in the experiment on plasma PEPD (setting [4]) was 2.0 fold and 2.1 fold. Moreover, the “average plasma level of total PEPD, higher than with hPEPD alone” value in the experiment on plasma PEPD (WT mice, EP 2.5 mg/kg i.p. daily 5 days, 1 h after hPEPD) is 35.2 fold; in the experiment with plasma PEPD (WT mice, EP 2.5 mg/kg i.p. daily 5 days, 24 h after hPEPD), 63.8 fold. For the same substance, in the experiment on plasma PEPD (WT mice, EP pretreatment, 6 h after hPEPD 0.2 mg/kg i.p.), the “average plasma level of total PEPD” value stood at 19.7 nM. Also, the “reduction of hPEPD dose allowed by EP without decreasing its plasma concentration” value in the experiment on plasma PEPD (mice, plasma concentration required for inhibition of ERBB2-driven tumors) was “at least 50 fold”. For the same substance, in experiment [1] (FXII−/− mice), the “EP inhibition of hPEPD-induced slight activation of FX, FII and FVII” value is recorded as “largely inhibited by EP”. In addition, in experiment [1] (WT mice treated with hAβ1-42 40 μg/kg, EP 2.5 mg/kg daily 5 days), the “EP inhibition of activation of FX, FII and FVII” value was “greatly inhibited the activation of FX, FII and FVII”. Moreover, the “EP prevention of hPEPD-induced activation of FXII, PK, HMWK, FXI and FIX” value in experiment [1] (setting [5]) was “failed to prevent hPEPD from activating FXII, PK, HMWK, FXI and FIX”. Also, the “EP prevention of hPEPD-induced activation or cleavage of FX, FII, FI and FVII” value in experiment [1] (setting [5]) is “prevented hPEPD from causing activation or cleavage of FX, FII, FI and FVII”. Also, in experiment [1] (setting [4]), the “effect of EP itself on plasma coagulation factors” value is recorded as “had no effect on any of the FXII-FVII pathway factors measured; also recorded: had no effect on these factors”. For the same substance, the “average plasma level of endogenous mAβ1-42, higher in EP-treated mice than in control mice” value with plasma Aβ1-42 is 1.7 fold. Also, the “plasma level of total Aβ1-42, increase after EP plus hAβ1-42” value in the experiment on plasma Aβ1-42 (hAβ1-42 40 μg/kg 1 h after last dose, 6 h) came out at 406.0 fold. Also, the “elevation of average plasma hAβ1-40 concentration by EP pretreatment” value with plasma hAβ1-40 was 77.4 fold. Also, the “ratio of EP-induced increase in total plasma levels of Aβ1-40 and Aβ1-42 in AD mice to WT mice” value in experiment [2] (1 month of age) is 8.71-9.32; in experiment [2] (3 month of age) it was 47.53-56.85. Moreover, the “increase in total plasma levels of Aβ1-40 and Aβ1-42” value in experiment [2] (AD mice, 1 month of age) is given as “about 2.3 fold”; in experiment [2] (AD mice, 3 month of age) it was 3.6-4.2 fold; in experiment [2] (WT mice at both 1 month and 3 months of age) it was “about 1.6 fold”. In addition, the “EP effect on activation of FX, FII and FVII” value in experiment [3] is “inhibits the activation of FX, FII and FVII”.
